In patent US20040009568A1, “Catalytic domains of the human hepatocyte growth factor receptor tyrosine kinase, and materials and methods for identification of inhibitors thereof” (priority 2001, published 2004):

Legend:
Type in all cases: biochemical
unphosphorylated HGFR = target: T1, unphosphorylated HGFR (Homo sapiens, UniProt P08581); assay: Coupled enzymatic (PK/LDH) kinase assay, unphosphorylated HGFR
T1 construct: The cDNA corresponding to residues 1051-1349 of the HGFR kinase catalytic domain (HGFRkd) was cloned into a pFastBac plasmid; added N-terminal methionine (start codon of the NcoI site) (N); made in house; host or cells: Sf9 insect cells, recombinant baculovirus (pFastBac-NcoI)
Procedure: (§1) A coupled enzymatic assay format was used to measure both HGFR and phospho-HGFR(PHGFR) activities. The kinase-catalyzed production of ADP from ATP that accompanies phosphate transfer to the random copolymer poly(Glu4Tyr) or peptide substrate was coupled to the oxidation of NADH through the activities of pyruvate kinase (PK) and lactate dehydrogenase (LDH). NADH conversion to NAD^+ was monitored by the decrease in absorbance at 340 nm (ε=6.22 cm^−1 mM^−1) using a Beckman DU650 spectrophotometer. A typical reaction solution contained 1 mM phosphoenolpyruvate, 0.24 mM NADH, 40 mM MgCl2, 5 mM DTT, poly(Glu4Tyr), ATP, 15 units/mL PK, 15 units/mL LDH in 100 mM HEPES, pH 7.5. ATP was varied from 0.5 to 2000 μM and poly(Glu4Tyr) was varied from 0.5 to 20 mg/mL. In addition, Met2 peptide (0-4 mM) could be used instead of poly(Glu4Tyr). Assays were initiated with the addition of 12 nM phosphorylated HGFR or 125 nM unphosphorylated HGFR. Inhibition studies were performed as described above with following exceptions: 0.075 mM ATP (PHGFR) and 0.375 mM ATP (HGFR). Data was fit to the equation for competitive inhibition by the method of nonlinear least squares (KaleidaGraph).
The kinetic consequences of the autophosphorylation were investigated. HGFR and pHGFR activities were evaluated in two distinct and complementing assay formats. […] NADH conversion to NAD^+ was monitored spectrophotometrically by the decrease in absorbance at 340 nm (ε=6.22 cm^−1 mM^−1). […]
(§2) Inhibition of HGFR and pHGFR were monitored in two distinct assay formats to insure valid results. The coupled, enzymatic format (CE) was a continuous assay that measured ADP production through the sequential action of two standard coupling enzymes (pyruvate kinase and lactate dehydrogenase). The radioactive assay format was a discontinuous assay that measured phospho-protein production directly. […]
(§3) The coupled enzymatic analysis of HGFR processing of ATP and poly(Glu4Tyr) were measured at 37° C. Variable substrate concentration was measured at a fixed saturating concentration of the other substrate.

[1] = target: T2, phosphorylated HGFR (pHGFR) (Homo sapiens, UniProt P08581); assay: Coupled enzymatic (PK/LDH) kinase assay, phospho-HGFR
T2 construct: The cDNA corresponding to residues 1051-1349 of the HGFR kinase catalytic domain (HGFRkd) was cloned into a pFastBac plasmid; added N-terminal methionine (start codon of the NcoI site) (N); made in house; host or cells: Sf9 insect cells, recombinant baculovirus; then autophosphorylated in vitro with MgATP
Procedure: as §1
(§4) The kinetic consequences of the autophosphorylation were investigated. HGFR and pHGFR activities were evaluated in two distinct and complementing assay formats. […] A coupled, enzymatic assay format (CE format) was used to measure ADP production. HGFR-catalyzed production of ADP from ATP that accompanied phosphate transfer to the random copolymer poly(Glu4Tyr) was coupled to the oxidation of NADH through the sequential activities of pyruvate kinase (PK) and lactate dehydrogenase (LDH). NADH conversion to NAD^+ was monitored spectrophotometrically by the decrease in absorbance at 340 nm (ε=6.22 cm^−1 mM^−1). A second assay format was used to measure the production of [^32P]-labeled phospho-protein (dephosphorylated α-casein). Dephosphorylated α-casein is the substrate for HGFR […] in a glass fiber filterplate assay format. […]
as §2, §3

pHGFR = target: T3, pHGFR (Homo sapiens, UniProt P08581); assay: Radioactive glass fiber filterplate assay (32P transfer to dephosphorylated α-casein)
T3 construct: The cDNA corresponding to residues 1051-1349 of the HGFR kinase catalytic domain (HGFRkd) was cloned into a pFastBac plasmid; added N-terminal methionine (start codon of the NcoI site) (N); made in house; host or cells: Sf9 insect cells, recombinant baculovirus; then autophosphorylated in vitro with MgATP
Procedure: as §4, §2

[2] = coupled enzymatic analysis, 37° C., other substrate fixed saturating

T2 sequence (P08581 1051-1349): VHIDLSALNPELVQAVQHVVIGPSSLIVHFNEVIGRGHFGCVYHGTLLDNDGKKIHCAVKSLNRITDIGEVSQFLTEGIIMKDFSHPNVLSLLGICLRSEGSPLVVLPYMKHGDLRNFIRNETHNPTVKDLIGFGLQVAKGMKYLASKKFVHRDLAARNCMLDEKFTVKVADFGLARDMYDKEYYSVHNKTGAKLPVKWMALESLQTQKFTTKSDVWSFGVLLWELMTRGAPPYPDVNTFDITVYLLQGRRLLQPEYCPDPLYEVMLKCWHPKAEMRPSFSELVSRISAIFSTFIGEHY
T1 sequence (P08581 1051-1349): as above
T3 sequence (P08581 1051-1349): as above

Ki (unphosphorylated HGFR; coupled enzymatic format, 0.375 mM ATP, data fit to equation for competitive inhibition, read-out: inhibition (HGFR/CE format)) [nM]	mechanism of pHGFR inhibition (double reciprocal analysis) ([1]; CE assay, ATP 25-3200 μM, Compound 1 0-1200 nM, pHGFR 25 nM, Met2 peptide 0.5 mM)	Ki ([1]; coupled enzymatic format, 0.075 mM ATP, data fit to equation for competitive inhibition, read-out: inhibition (pHGFR/CE format)) [nM]	Ki (pHGFR; radioactive filterplate format, 27.5 nM pHGFR, 0.075 mM ATP, RT, 30 min, read-out: inhibition (pHGFR/radioactive format)) [nM]	Km (unphosphorylated HGFR; [2]) [µM]	kcat, Unphosphorylated HGFR (unphosphorylated HGFR; [2]) [s⁻¹]	kcat, Phospho-HGFR [1, 2] [s⁻¹]	Km ([1]; coupled enzymatic analysis, 37° C., other substrate fixed saturating, read-out: Km, Phospho-HGFR) [µM]	Km (pHGFR; radioactive filtermate format, dephosphorylated α-casein phosphoacceptor, read-out: Km for ATP (radioactive filtermate format)) [µM]	Structure (SMILES)
500 ± 30	ATP-competitive inhibitor	381 ± 19	128 ± 17						O=C1Nc2ccc3ncsc3c2/C1=C/Nc1ccc(S(=O)(=O)NCCOCCO)cc1 [Compound 1, 4-[[(Z)-(6,7-dihydro-7-oxo-8H-pyrrolo[2,3-g]benzothiazol-8-ylidene)methyl]amino]-N-[2-(2-hydroxyethoxy)ethyl]-(9CI)]
				373 ± 61	1.02 ± 0.013	31.3 ± 2.1	73.7 ± 2.8	78.6 ± 12.1	Nc1ncnc2c1ncn2[C@@H]1O[C@H](COP(=O)(O)OP(=O)([O-])OP(=O)([O-])O)[C@@H](O)[C@H]1O.[Mg+2] [MgATP, ATP]
